Measured values taken from PubChem BioAssay (NCI).
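In this assay, cells in 96-well plates receive the compound at five concentrations for 48 hours. Endpoints are linearly interpolated between the surrounding concentrations. TGI is the concentration that stops growth completely.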

Legend:
Experiment in all cases: DTP human tumour cell line panel, 48 h
NCI-H460 lung = tested on: NCI-H460 lung
SK-MEL-28 melanoma = tested on: SK-MEL-28 melanoma
OVCAR-3 ovarian = tested on: OVCAR-3 ovarian
HL-60(TB) leukemia = tested on: HL-60(TB) leukemia
SNB-19 CNS = tested on: SNB-19 CNS
HCC-2998 colon = tested on: HCC-2998 colon
LOX IMVI melanoma = tested on: LOX IMVI melanoma
SN12C renal = tested on: SN12C renal
HT29 colon = tested on: HT29 colon
OVCAR-5 ovarian = tested on: OVCAR-5 ovarian
RPMI-8226 leukemia = tested on: RPMI-8226 leukemia
SK-OV-3 ovarian = tested on: SK-OV-3 ovarian
COLO 205 colon = tested on: COLO 205 colon
PC-3 prostate = tested on: PC-3 prostate
UO-31 renal = tested on: UO-31 renal
786-0 renal = tested on: 786-0 renal
SK-MEL-2 melanoma = tested on: SK-MEL-2 melanoma
M14 melanoma = tested on: M14 melanoma
EKVX NSCLC = tested on: EKVX NSCLC
SW-620 colon = tested on: SW-620 colon
ACHN renal = tested on: ACHN renal
RXF 393 renal = tested on: RXF 393 renal
MOLT-4 leukemia = tested on: MOLT-4 leukemia
NCI-H23 lung = tested on: NCI-H23 lung
NCI-H522 lung = tested on: NCI-H522 lung
SF-539 CNS = tested on: SF-539 CNS
NCI-H226 lung = tested on: NCI-H226 lung
K-562 leukemia = tested on: K-562 leukemia
HCT-15 colon = tested on: HCT-15 colon
HOP-92 NSCLC = tested on: HOP-92 NSCLC
MDA-MB-231 breast = tested on: MDA-MB-231 breast
IGROV1 ovarian = tested on: IGROV1 ovarian
SF-268 CNS = tested on: SF-268 CNS
A498 renal = tested on: A498 renal
OVCAR-8 ovarian = tested on: OVCAR-8 ovarian
HOP-62 NSCLC = tested on: HOP-62 NSCLC
SF-295 CNS = tested on: SF-295 CNS
UACC-257 melanoma = tested on: UACC-257 melanoma
CAKI-1 renal = tested on: CAKI-1 renal
A549 NSCLC = tested on: A549 NSCLC
MCF7 breast = tested on: MCF7 breast
TK-10 renal = tested on: TK-10 renal
MALME-3M melanoma = tested on: MALME-3M melanoma
KM12 colon = tested on: KM12 colon
MDA-N = tested on: MDA-N
SK-MEL-5 melanoma = tested on: SK-MEL-5 melanoma
HCT-116 colon = tested on: HCT-116 colon
DU-145 prostate = tested on: DU-145 prostate
T-47D breast = tested on: T-47D breast
HS 578T breast = tested on: HS 578T breast
OVCAR-4 ovarian = tested on: OVCAR-4 ovarian
BT-549 breast = tested on: BT-549 breast
U251 CNS = tested on: U251 CNS
SR leukemia = tested on: SR leukemia
MDA-MB-435 = tested on: MDA-MB-435
CCRF-CEM leukemia = tested on: CCRF-CEM leukemia

Measured: TGI

C=CCNC(=O)N1CC(C)C(=O)Nc2ccccc21 (stereo unspecified)
> 100 µM: NCI-H460 lung | SK-MEL-28 melanoma | OVCAR-3 ovarian | HL-60(TB) leukemia | SNB-19 CNS | HCC-2998 colon | LOX IMVI melanoma | SN12C renal | HT29 colon | OVCAR-5 ovarian | RPMI-8226 leukemia | SK-OV-3 ovarian | COLO 205 colon | PC-3 prostate | UO-31 renal | 786-0 renal | SK-MEL-2 melanoma | M14 melanoma | EKVX NSCLC | SW-620 colon | ACHN renal | RXF 393 renal | MOLT-4 leukemia | NCI-H23 lung | NCI-H522 lung | SF-539 CNS | NCI-H226 lung | K-562 leukemia | HCT-15 colon | HOP-92 NSCLC | MDA-MB-231 breast | IGROV1 ovarian | SF-268 CNS | A498 renal | OVCAR-8 ovarian | HOP-62 NSCLC | SF-295 CNS | UACC-257 melanoma | CAKI-1 renal | A549 NSCLC | MCF7 breast | TK-10 renal | MALME-3M melanoma | KM12 colon | MDA-N | SK-MEL-5 melanoma | HCT-116 colon | DU-145 prostate | T-47D breast | HS 578T breast | OVCAR-4 ovarian | BT-549 breast | U251 CNS | SR leukemia | MDA-MB-435 | CCRF-CEM leukemia
